In PubChem BioAssay AID248 (DTP/NCI, 2004):
Where “and” joins values, the source holds several entries; their conditions need not be identical. Equal values may be shown once. Inconclusive results and toxic doses are left out. Cut-off read from the data, not from the text of the source: active = T/C of 150% or more; inactive = T/C below 125%.

System: L1210 leukemia ip in BDF1 mice, survival T/C
Assay: NCI In Vivo Anticancer Drug Screen. Data for tumor model L1210 Leukemia (intraperitoneal) in B6D2F1 (BDF1) mice
Settings: endpoint: mean survival time, higher = longer survival
Method in brief: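 Antitumor effect is assessed in tumor-bearing animals. Survival in the compound arm is compared with a vehicle-dosed control arm and expressed as their quotient.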

[1] = dose: 100.0 mg/kg/injection, schedule: Q01DX001 (ip), vehicle: saline
[2] = dose: 200.0 mg/kg/injection, schedule: Q01DX001 (ip), vehicle: saline
[3] = dose: 400.0 mg/kg/injection, schedule: Q01DX001 (ip), vehicle: saline
[4] = dose: 100.0 mg/kg/injection, schedule: Q04DX003 (ip), vehicle: Klucel (hydroxypropylcellulose) (HPC)
[5] = dose: 200.0 mg/kg/injection, schedule: Q04DX003 (ip), vehicle: Klucel (hydroxypropylcellulose) (HPC)
[6] = dose: 400.0 mg/kg/injection, schedule: Q04DX003 (ip), vehicle: Klucel (hydroxypropylcellulose) (HPC)
[7] = dose: 50.0 mg/kg/injection, schedule: Q01DX009 (ip), vehicle: saline with Tween-80
[8] = dose: 100.0 mg/kg/injection, schedule: Q01DX009 (ip), vehicle: saline with Tween-80
[9] = dose: 200.0 mg/kg/injection, schedule: Q01DX009 (ip), vehicle: saline with Tween-80
[10] = dose: 100.0 mg/kg/injection, schedule: Q04DX002 (ip), vehicle: saline with Tween-80
[11] = dose: 200.0 mg/kg/injection, schedule: Q04DX002 (ip), vehicle: saline with Tween-80
[12] = dose: 400.0 mg/kg/injection, schedule: Q04DX002 (ip), vehicle: saline with Tween-80
[13] = dose: 100.0 mg/kg/injection, schedule: Q01DX009 (ip), vehicle: Klucel (hydroxypropylcellulose) (HPC)
[14] = dose: 100.0 mg/kg/injection, schedule: Q04DX002 (ip), vehicle: Klucel (hydroxypropylcellulose) (HPC)
[15] = dose: 200.0 mg/kg/injection, schedule: Q04DX002 (ip), vehicle: Klucel (hydroxypropylcellulose) (HPC)
[16] = dose: 400.0 mg/kg/injection, schedule: Q04DX002 (ip), vehicle: Klucel (hydroxypropylcellulose) (HPC)

Measured: T/C

Nc1ccc(I)cc1C(=O)O
inactive: dose: 50.0 mg/kg/injection, schedule: Q01DX001 (ip), vehicle: saline 103 % of control | [1] 103 % of control | [2] 101 % of control | [3] 97 % of control

CCSc1n[nH]c(=O)nc1NN
inactive: dose: 10.0 mg/kg/injection, schedule: Q01DX001 (ip), vehicle: acetone 102 % of control | dose: 20.0 mg/kg/injection, schedule: Q01DX001 (ip), vehicle: acetone 96 % of control | dose: 40.0 mg/kg/injection, schedule: Q01DX001 (ip), vehicle: acetone 96 % of control

CCC(CO)Nc1nc2cc(Br)ccc2c2ccc(Br)cc12 (configuration not stated)
inactive: [4] 90 % of control | [5] 87 % of control | [6] 94 % of control

CC(=O)Nc1ccc(OC(=O)c2cccc([N+](=O)[O-])c2)cc1
inactive: [1] 107 % of control | [2] 101 % of control | [3] 104 % of control

CC1CCC2C(C1)N(C(C)C)OC2(C)C (configuration not stated)
inactive: [7] 104 % of control | [8] 98 % of control | dose: 100.0 mg/kg/injection, schedule: Q04DX003 (ip), vehicle: saline with Tween-80 108 % of control | dose: 200.0 mg/kg/injection, schedule: Q04DX003 (ip), vehicle: saline with Tween-80 102 % of control

COc1cc(CC(=O)NO)cc(OC)c1OC
inactive: dose: 50.0 mg/kg/injection, schedule: Q01DX005 (ip), vehicle: saline with Tween-80 93 % of control | [7] 100 % of control | dose: 100.0 mg/kg/injection, schedule: Q01DX005 (ip), vehicle: saline with Tween-80 110 % of control | [8] 96 % of control | dose: 200.0 mg/kg/injection, schedule: Q01DX005 (ip), vehicle: saline with Tween-80 93 % of control | [9] 100 % of control

CC12CC3CC(C)(C1)CC(SCCCCCN=C(N)CSSCC(N)=NCCCCCSC14CC5CC(C)(CC(C)(C5)C1)C4)(C3)C2
inactive: dose: 10.0 mg/kg/injection, schedule: Q04DX002 (ip), vehicle: Klucel (hydroxypropylcellulose) (HPC) 110 % of control | dose: 20.0 mg/kg/injection, schedule: Q04DX002 (ip), vehicle: Klucel (hydroxypropylcellulose) (HPC) 102 % of control | dose: 40.0 mg/kg/injection, schedule: Q04DX002 (ip), vehicle: Klucel (hydroxypropylcellulose) (HPC) 87 % of control

CC1=CC(C)=NC2NNC(=O)C12 (configuration not stated)
inactive: [10] 100 % of control | [11] 103 % of control | [12] 96 % of control

Fc1c(F)c(C(F)(F)F)c(F)c(F)c1P(c1c(F)c(F)c(C(F)(F)F)c(F)c1F)c1c(F)c(F)c(C(F)(F)F)c(F)c1F
inactive: dose: 75.0 mg/kg/injection, schedule: Q01DX009 (ip), vehicle: Klucel (hydroxypropylcellulose) (HPC) 123 % of control | [4] 97 % of control | dose: 150.0 mg/kg/injection, schedule: Q01DX009 (ip), vehicle: Klucel (hydroxypropylcellulose) (HPC) 96 % of control | [5] 100 % of control | dose: 300.0 mg/kg/injection, schedule: Q01DX009 (ip), vehicle: Klucel (hydroxypropylcellulose) (HPC) 100 % of control | [6] 100 % of control

COc1ccc(/C=C/C(=O)O)cc1
inactive: [8] 100 % of control | [10] 88 % of control | [9] 107 % of control | [11] 98 % of control | dose: 400.0 mg/kg/injection, schedule: Q01DX009 (ip), vehicle: saline with Tween-80 97 % of control | [12] 88 % of control

CCCCCCCCCCCCCCCCOc1ccc(CC)cc1
inactive: [4] 91 % of control

COC(=O)C1CCC2C3CCC4CC(O)CCC4(C)C3CCC12C (configuration not stated)
inactive: dose: 100.0 mg/kg/injection, schedule: Q01DX001 (ip), vehicle: Klucel (hydroxypropylcellulose) (HPC) 110 % of control | dose: 200.0 mg/kg/injection, schedule: Q01DX001 (ip), vehicle: Klucel (hydroxypropylcellulose) (HPC) 100 % of control | dose: 400.0 mg/kg/injection, schedule: Q01DX001 (ip), vehicle: Klucel (hydroxypropylcellulose) (HPC) 95 % of control

CC(CCC/C=C/CCCN(C)C(=N)N)CC(C)C1OC(=O)C(C)C(O)/C=C/C(C)C(O)C(C)C(O)C(C)C(O)CCCC(O)CC2(O)OC(CC(OC(=O)CC(=O)O)CC(O)CC(O)C(C)C(O)/C=C/C=C/C1C)CC(O)C2O (configuration not stated)
inactive: dose: 0.48 mg/kg/injection, schedule: Q01DX009 (ip), vehicle: saline 90 % of control | dose: 0.73 mg/kg/injection, schedule: Q01DX009 (ip), vehicle: saline 92 % of control | dose: 0.96 mg/kg/injection, schedule: Q04DX003 (ip), vehicle: saline 106 % of control | dose: 1.09 mg/kg/injection, schedule: Q01DX009 (ip), vehicle: saline 92 % of control | dose: 1.46 mg/kg/injection, schedule: Q04DX003 (ip), vehicle: saline 104 % of control | dose: 2.18 mg/kg/injection, schedule: Q04DX003 (ip), vehicle: saline 120 % of control | dose: 3.2 mg/kg/injection, schedule: Q04DX003 (ip), vehicle: saline 97 % of control | dose: 4.9 mg/kg/injection, schedule: Q04DX003 (ip), vehicle: saline 103 % of control and 86 % of control | dose: 7.3 mg/kg/injection, schedule: Q04DX003 (ip), vehicle: saline 92 % of control | dose: 23.0 micrograms/kg/injection, schedule: Q01DX001 (ip), vehicle: saline 98 % of control | dose: 23.0 micrograms/kg/injection, schedule: Q01DX009 (ip), vehicle: saline 100 % of control | dose: 23.0 micrograms/kg/injection, schedule: Q04DX003 (ip), vehicle: saline 105 % of control | dose: 47.0 micrograms/kg/injection, schedule: Q01DX001 (ip), vehicle: saline 104 % of control | dose: 47.0 micrograms/kg/injection, schedule: Q01DX009 (ip), vehicle: saline 108 % of control | dose: 47.0 micrograms/kg/injection, schedule: Q04DX003 (ip), vehicle: saline 106 % of control | dose: 95.0 micrograms/kg/injection, schedule: Q01DX001 (ip), vehicle: saline 97 % of control | dose: 95.0 micrograms/kg/injection, schedule: Q01DX009 (ip), vehicle: saline 94 % of control | dose: 95.0 micrograms/kg/injection, schedule: Q04DX003 (ip), vehicle: saline 101 % of control | dose: 141.0 micrograms/kg/injection, schedule: Q01DX009 (ip), vehicle: saline 106 % of control | dose: 141.0 micrograms/kg/injection, schedule: Q04DX003 (ip), vehicle: saline 97 % of control | dose: 215.0 micrograms/kg/injection, schedule: Q01DX009 (ip), vehicle: saline 105 % of control | dose: 215.0 micrograms/kg/injection, schedule: Q04DX003 (ip), vehicle: saline 100 % of control | dose: 322.0 micrograms/kg/injection, schedule: Q01DX009 (ip), vehicle: saline 103 % of control | dose: 322.0 micrograms/kg/injection, schedule: Q04DX003 (ip), vehicle: saline 103 % of control

CCC(CO)Nc1nc2ccc([N+](=O)[O-])cc2c2ccccc12 (configuration not stated)
inactive: [13] 103 % of control | [4] 94 % of control | dose: 200.0 mg/kg/injection, schedule: Q01DX009 (ip), vehicle: Klucel (hydroxypropylcellulose) (HPC) 111 % of control | [5] 102 % of control | [6] 102 % of control

CCOC(=O)c1ccc(Nc2sc(C(=O)c3cccc([N+](=O)[O-])c3)c(N)c2C#N)cc1
inactive: [14] 101 % of control | [15] 92 % of control | [16] 92 % of control

COc1ccc2nc(/N=C(/N)N=C(N)N)sc2c1
inactive: dose: 75.0 mg/kg/injection, schedule: Q01DX001 (ip), vehicle: carboxymethylcellulose (CMC) 100 % of control | dose: 150.0 mg/kg/injection, schedule: Q01DX001 (ip), vehicle: carboxymethylcellulose (CMC) 97 % of control | dose: 300.0 mg/kg/injection, schedule: Q01DX001 (ip), vehicle: carboxymethylcellulose (CMC) 103 % of control

Nc1nc(N)c(CCCCc2ccccc2)c(C=O)n1
inactive: [13] 98 % of control

COC1OC(CCl)C(Cl)C(OS(=O)(=O)c2ccc(C)cc2)C1OS(=O)(=O)c1ccc(C)cc1 (configuration not stated)
inactive: [14] 100 % of control | [10] 90 % of control | [11] 101 % of control | [16] 94 % of control | [12] 93 % of control

CCN(CC)CCSc1ncnc2nc[nH]c12
inactive: dose: 75.0 mg/kg/injection, schedule: Q01DX001 (ip), vehicle: saline 102 % of control | dose: 150.0 mg/kg/injection, schedule: Q01DX001 (ip), vehicle: saline 91 % of control | dose: 300.0 mg/kg/injection, schedule: Q01DX001 (ip), vehicle: saline 104 % of control

CC(c1ccccc1)n1cncc1C(=O)N1CCOCC1 (configuration not stated)
inactive: [14] 104 % of control | [15] 97 % of control | [16] 123 % of control
